In US20180002288A1, “USE OF PICOLINAMIDES AS FUNGICIDES” (DOW AGROSCIENCES LLC, priority 2014, published 2018) one finds pest or weed control data, which are given here for two molecules.

Structures are written as SMILES. Where two headings read alike, the source gives them in different places.

Assay [1] concerns Phakopsora pachyrhizi. Briefly: Asian Soybean Rust fungicidal activity (PHAKPA). Conditions: Phakopsora pachyrhizi, in Glycine max.
Assay [2] concerns Venturia inaequalis. The assay can be described thus: Apple Scab fungicidal activity (VENTIN). Format: in vivo. Conditions: 24 h, high volume, 1 Day Protectant, read-out: VENTIN % Control rating. The method, then: All fungicides were evaluated using the aforementioned method for their activity vs. all target diseases, unless stated otherwise. Wheat leaf blotch and brown rust activity were also evaluated using track spray applications, in which case the fungicides were formulated as EC formulations, containing 0.1% Trycol 5941 in the spray solutions. Wheat plants (variety Yuma) were grown from seed in a greenhouse in 50% mineral soil/50% soil-less Metro mix until the first leaf was fully emerged, with 7-10 seedlings per pot. These plants were inoculated with an aqueous spore suspension of Zymoseptoria tritici either prior to or after fungicide treatments. After inoculation the plants were kept in 100% relative humidity (one day in a dark dew chamber followed by two to three days in a lighted dew chamber at 20° C.) to permit spores to germinate and infect the leaf. The plants were then transferred to a greenhouse set at 20° C. for disease to develop. When disease symptoms were fully expressed on the 1st leaves of untreated plants, infection levels were assessed on a scale of 0 to 100 percent disease severity. Percent disease control was calculated using the ratio of disease severity on treated plants relative to untreated plants. […] Seedlings with two expanding young leaves at the top (older leaves at bottom of the plants were trimmed) were used in the test. Plants were inoculated with a spore suspension of Venturia inaequalis 24 hr after fungicide treatment and kept in a 22° C. dew chamber with 100% relative humidity for 48 hr, and then moved to a greenhouse set at 20° C. for disease to develop. Fungicide formulation, application and disease assessment on the sprayed leaves followed the procedures as described in the Example A.

The test system of assay [3] is Cercospora beticola. Briefly: Leaf Spot of Sugar Beets fungicidal activity (CERCBE). Conditions: 24 h, sugar beet, high volume, 1 Day Protectant, read-out: CERCBE % Control rating. Type of assay: in vivo. The protocol: All fungicides were evaluated using the aforementioned method for their activity vs. all target diseases, unless stated otherwise. Wheat leaf blotch and brown rust activity were also evaluated using track spray applications, in which case the fungicides were formulated as EC formulations, containing 0.1% Trycol 5941 in the spray solutions. Wheat plants (variety Yuma) were grown from seed in a greenhouse in 50% mineral soil/50% soil-less Metro mix until the first leaf was fully emerged, with 7-10 seedlings per pot. These plants were inoculated with an aqueous spore suspension of Zymoseptoria tritici either prior to or after fungicide treatments. After inoculation the plants were kept in 100% relative humidity (one day in a dark dew chamber followed by two to three days in a lighted dew chamber at 20° C.) to permit spores to germinate and infect the leaf. The plants were then transferred to a greenhouse set at 20° C. for disease to develop. When disease symptoms were fully expressed on the 1st leaves of untreated plants, infection levels were assessed on a scale of 0 to 100 percent disease severity. Percent disease control was calculated using the ratio of disease severity on treated plants relative to untreated plants. Sugar beet plants (variety HH88) were grown in soil-less Metro mix and trimmed regularly to maintain a uniform plant size prior to test. Plants were inoculated with a spore suspension 24 hr after fungicide treatments. Inoculated plants were kept in a dew chamber at 22° C. for 48 hr then incubated in a greenhouse set at 24° C. under a clear plastic hood with bottom ventilation until disease symptoms were fully expressed. Fungicide formulation, application and disease assessment on the sprayed leaves followed the procedures as described in the Example A.

In assay [4] the test system is Puccinia triticina. Briefly: Wheat Brown Rust fungicidal activity (PUCCRT). Type of assay: in vivo. The settings on record: Low Volume Cereal Activity at 121.5 g/Ha.
Assay [5] concerns Alternaria solani. The assay can be described thus: Tomato Early Blight fungicidal activity (ALTESO). Format: in vivo. The settings on record: 24 h, high volume, 1 Day Protectant, read-out: ALTESO % Control rating. The method, then:
All fungicides were evaluated using the aforementioned method for their activity vs. all target diseases, unless stated otherwise. Wheat leaf blotch and brown rust activity were also evaluated using track spray applications, in which case the fungicides were formulated as EC formulations, containing 0.1% Trycol 5941 in the spray solutions. Wheat plants (variety Yuma) were grown from seed in a greenhouse in 50% mineral soil/50% soil-less Metro mix until the first leaf was fully emerged, with 7-10 seedlings per pot. These plants were inoculated with an aqueous spore suspension of Zymoseptoria tritici either prior to or after fungicide treatments. After inoculation the plants were kept in 100% relative humidity (one day in a dark dew chamber followed by two to three days in a lighted dew chamber at 20° C.) to permit spores to germinate and infect the leaf. The plants were then transferred to a greenhouse set at 20° C. for disease to develop. When disease symptoms were fully expressed on the 1st leaves of untreated plants, infection levels were assessed on a scale of 0 to 100 percent disease severity. Percent disease control was calculated using the ratio of disease severity on treated plants relative to untreated plants. Tomato plants (variety Outdoor Girl) were propagated in soil-less Metro mix, with each pot having one plant, and used when 12 to 14 days old. Test plants were inoculated with an aqueous spore suspension of Alternaria solani 24 hr after fungicide treatments. After inoculation the plants were kept in a dew room at 22° C. with 100% relative humidity for 48 hr to permit spores to germinate and infect the leaf. The plants were then transferred to a growth room at 22° C. for disease to develop. Fungicide formulation, application and disease assessment on the sprayed leaves followed the procedures as described in the Example A.

For assay [6], the system named is Zymoseptoria tritici. The assay can be described thus: Leaf Blotch of Wheat fungicidal activity (SEPTTR). Type of assay: in vivo. The settings on record: Low Volume Cereal Activity at 121.5 g/Ha.
Setting [7] is: 24 h, read-out: PHAKPA 1DP % Control rating, soybean, high volume, 25 ppm, 1 Day Protectant.
Where [8] appears, read: 72 h, read-out: PHAKPA 3DC % Control rating, soybean, high volume, 25 ppm, 3 Day Curative.
Setting [9] is: 24 h, 1 Day Protectant, read-out: PUCCRT 1DP (Wheat Brown Rust, 1 Day Protectant).
Setting [10] is: 72 h, 3 Day Curative, read-out: PUCCRT 3DC (Wheat Brown Rust, 3 Day Curative).
[11] abbreviates: 24 h, 1 Day Protectant, read-out: SEPTTR 1DP (Wheat Leaf Blotch, 1 Day Protectant).
Setting [12] is: 72 h, 3 Day Curative, read-out: SEPTTR 3DC (Wheat Leaf Blotch, 3 Day Curative).

Turning to `COc1ccnc(C(=O)N[C@H](C)C(=O)O[C@H](C)[C@@H](Oc2ccccc2)c2ccccc2)c1OCOC(C)=O` [Example 186], the pest or weed control at 25 ppm in assay [1] (setting [7]) and in assay [1] (setting [8]) was below 0% throughout. Besides, the pest or weed control at 100 ppm in assay [2], in assay [3] and in assay [5] was below 80% throughout. Moreover, the pest or weed control at 121.5 g/ha in assay [4] (setting [9]) is below 0%; in assay [4] (setting [10]), below 0%; in assay [6] (setting [11]), below 80%; in assay [6] (setting [12]) it was below 80%.

Consider `COc1ccnc(C(=O)N[C@@H](C)C(=O)O[C@H](C)[C@@H](Oc2ccccc2)c2ccccc2)c1OCOC(C)=O` [Example 185], for which the results for the pest or weed control at 25 ppm in assay [1] (setting [7]) and in assay [1] (setting [8]) were below 80% and below 0%, respectively. Also, the pest or weed control at 100 ppm in assay [2], in assay [3] and in assay [5] was below 80% each time. For the same molecule, the pest or weed control at 121.5 g/ha in assay [4] (setting [9]), in assay [4] (setting [10]), in assay [6] (setting [11]) and in assay [6] (setting [12]) was above 80% each time.
